In US20250042918A1, “COMPOUNDS” (Fundación Del Sector Públlco Estatal Centro Nacional De …, priority 2021, published 2025):

Columns and labels:
[1] = target: T1, PIM-3 (Homo sapiens, UniProt Q86V86); experiment: Protein PIM kinase assay (ADP Hunter Plus); assay type: biochemical; conditions: 100 μM ATP, 100 μM PIMtide
T1 construct: purchased Millipore 14-738
Experimental: (§1) PIM kinase activities were measured by using the commercial ADP Hunter™ Plus assay (DiscoveRx Ref. #33-016), a homogeneous assay measuring ADP accumulation, as a universal product of kinase activity. PIM-1 and PIM-2 proteins were obtained by purification as it is described by Martinez-Gonzalez et. al. Eur. J. Med Chem. 2019, 168, 87-109 and PIM-3 was acquired from Millipore (Cat #14-738). The assay was done following general manufacturer recommendations and adapting protein and substrates concentrations to optimal conditions. Kinase buffer was 15 mM HEPES, pH 7.4, 20 mM NaCl, 1 mM EGTA, 0.02% Tween-20, 10 mM MgCl2 and 0.1 mg/mL LBGG (bovine y-globulin). All PIM kinases assays were done at 100 μM PIM tide (ARKRRRHPSGPPTA), as peptide substrate, and 100 μM ATP. Protein concentration was 50, 350 and 200 pg/μl for PIM-1, 2 and 3, respectively. In order to calculate the IC50 of described compounds, serial 1:3 dilutions were prepared and the reaction started by addition of ATP. Incubation was done for 1 h at 25° C. Reagents A and B (DiscoveRx) were sequentially added to the wells and plates were incubated for 30 min at 37° C. Fluorescence counts were read in a Victor instrument (Perkin Elmer) with the recommended settings (544 and 580 nm as excitation and emission wavelengths, respectively). Values were plot against inhibitor concentration and fit to a sigmoid dose-response curve using Activity Base software from IDBS.

[2] = target: T2, PIM-1 (Homo sapiens, UniProt P11309); experiment: Protein PIM kinase assay (ADP Hunter Plus); assay type: biochemical; conditions: 100 μM ATP, 100 μM PIMtide
T2 construct: made in house
T2 sequence (P11309 whole entry): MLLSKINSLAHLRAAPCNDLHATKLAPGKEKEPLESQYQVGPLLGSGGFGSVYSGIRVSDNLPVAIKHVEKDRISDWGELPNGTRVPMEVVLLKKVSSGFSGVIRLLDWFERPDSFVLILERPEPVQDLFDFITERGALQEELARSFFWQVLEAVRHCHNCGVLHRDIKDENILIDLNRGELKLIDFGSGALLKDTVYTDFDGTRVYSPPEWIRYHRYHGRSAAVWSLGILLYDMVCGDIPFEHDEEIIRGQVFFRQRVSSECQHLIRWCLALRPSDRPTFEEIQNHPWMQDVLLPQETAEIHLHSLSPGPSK
Experimental: as §1

[3] = target: T3, PIM-2 (Homo sapiens, UniProt Q9P1W9); experiment: Protein PIM kinase assay (ADP Hunter Plus); assay type: biochemical; conditions: 100 μM ATP, 100 μM PIMtide
T3 construct: made in house
T3 sequence (Q9P1W9 whole entry): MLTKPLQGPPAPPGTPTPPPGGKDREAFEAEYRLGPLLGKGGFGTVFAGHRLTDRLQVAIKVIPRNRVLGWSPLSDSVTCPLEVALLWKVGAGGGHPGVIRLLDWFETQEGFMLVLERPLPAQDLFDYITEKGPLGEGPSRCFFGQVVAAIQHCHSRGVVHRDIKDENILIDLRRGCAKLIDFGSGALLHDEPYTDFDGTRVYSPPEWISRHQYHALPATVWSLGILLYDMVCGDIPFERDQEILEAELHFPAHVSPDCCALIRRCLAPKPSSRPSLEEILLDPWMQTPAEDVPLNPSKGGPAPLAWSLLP
Experimental: as §1

[4] = system: Naïve CD4+ T cells, Th17 cells; experiment: CD4+ T cell differentiation under Th17 conditions (IL-17A, ELISA and FACS); assay type: cell-based, mice
Experimental: Naïve CD4^+ T cells were purified from mice spleens and lymph nodes using positive selection by magnetic beads (CD4 L3T4 Kit, Miltenyi Biotec, UK). The purified T cells were activated by plate-bound αCD3ε (1 μg/ml; 2C11) and αCD28 (3 μg/ml; 37.51) in the presence or absence of the compound of Example 1 or Cyclosporin A (Sigma Aldrich), and cultured for 72 hrs under Th1 conditions (IL-12 [20 ng/ml]+αIL-4 (11B1) [10 μg/ml]), 72 hrs under Th17 conditions (αIFNγ [10 μg/ml]+αIL-4 [5 μg/ml]+IL-6 [[…]]+TGFβ(5 ng/ml)), and 96 hrs under iTreg conditions (TGFβ (5 ng/ml)) at 37° C.
ELISA kits for mouse IFNγ and IL-17a were purchased from eBioscience (Thermo Fisher, UK) and performed in accordance to manufacturer's instructions using Corning® High Binding ELISA plates (Merck, CLS9018). All ELISAs were analysed using a Synergy MX microplate reader (BioTek).
Intracellular protein expression was evaluated by first restimulating the cells with phorbol-12-myristate 13-acetate (PMA)(10 ng/ml) (Sigma Aldrich), ionomycin (1 μg/ml) (Sigma Aldrich) and Brefeldin A (5 μg/ml) (eBioscience) for 4-6 hours at 37° C. […] Fc block (93) and all fluorescence dye labelled antibodies used αCD4 (GK1.5), αIFNγ (XMG1.2), αIL-17a (17B7), αFOXP3 (NRRF-30; FJK-16S) were purchased from eBiosciences (Thermo Fisher, UK). […]

[5] = system: BAD S112 phosphorylation in H1299 cells overexpressing PIM-1 (H1299Pim1); experiment: BAD S112 phosphorylation inhibition assay (in Cell ELISA); assay type: cell-based; conditions: Homo sapiens, NCI-H1299, 4 hours, medium without FBS, read-out: BAD PH 1299PIM 1 ELIWO
Experimental: The efficacy of the compounds of the invention on the inhibition of BAD phosphorylation was measured by an in Cell ELISA.
Materials: H1299 cells overexpressing PIM-1 (H1299Pim1). DMSO Plates: 96-well-Polystyrene, Untreated, Round-Bottom plates from Costar (Cat #3797). Cell Plates: 96-Flat bottom biocoated with Poly-D-Lysin plates with lid from Becton Dickinson (Cat #354651). Cell Culture Medium: DMEM high glucose, 10% Fetal Bovine Serum, 2 mM L-Glutamine, P/S. Antibodies: phospho BAD S112 antibody from Cell Signaling (cat. #9291S), anti-rabbit conjugated with peroxidase from Amersham (cat. #3619). Reagent: SuperSignal ELISA femto from Pierce (cat. #1001110).
Procedure: Cells were seeded in 15000 cells per 200 μl per well into 96-well plates and incubated for 16 h at 37° C., 5% CO2. On day two, nine serial 1:2 compound dilutions were made in DMSO in a 96-well plate. The compounds were added to duplicate wells in 96-well cell plates using a FX BECKMAN robot (Beckman Coulter) and were incubated at 37° C. under CO2 atmosphere in medium without fetal bovine serum (FBS). After 4 hours, relative levels of BAD S112 phosphorylation were measured in Cell ELISA using SuperSignal ELISA Femto substrate (Pierce) and read on VICTOR (Perkin Elmer). EC50 values were calculated using ActivityBase from IDBS.

IC50 [1]: 5 to 10 nM
IC50 [2]: 1 to 5 nM
IC50 [3]: 5 to 10 nM
EC50 [5]: 8.3 nM
Structure (SMILES): CN1CCOc2c1c(N[C@H]1CC[C@@](C)(O)CC1)nn1c(-c3cccc(OC(F)(F)F)c3)nnc21 [Example 1, 1-Methyl-4-[6-methyl-3-(3-trifluoromethoxy-phenyl)-7,8-dihydro-6H-9-oxa-1,2,3a,4,6-pentaaza-cyclopenta[a]naphthalen-5-ylamino]-cyclohexanol]
pro-inflammatory Th17 responses ([4]; 12.5 nM, 72 hrs Th17 conditions): significant suppression
Differentiation of Th17 cells in vitro as determined by the secretion of IL-17A ([4]; at a range of concentrations, ELISA and FACS): inhibited
